What was measured:
Type in all cases: cell-based
Ba/F3 parental cells = test: Cell growth inhibitory activity assay (CellTiter-Glo), Ba/F3 parental cells; conditions: Mus musculus, BaF3, 72 h, CTG cell viability, read-out: IC50 Ba/F3 BCR-ABL1 Parental
How it was run: (§1)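 Compound dilutions applied for 72 h (37 °C, 5% CO2) to overnight-plated Ba/F3 cells, parental or engineered to express WT/mutant BCR-ABL1. ATP-based CellTiter-Glo luminescence read, referenced to day-0 viability and 0.5% DMSO wells; IC50 fitted by four-parameter logistic curve.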

Ba/F3 BCR-ABL1 WT = biological target: T1, Ba/F3 BCR-ABL1 WT (Homo sapiens, UniProt P00519+P11274); test: Cell growth inhibitory activity assay (CellTiter-Glo), Ba/F3 BCR-ABL1 WT cells; conditions: 72 h, CTG cell viability
T1 construct: BCR (N-terminal fusion partner of the oncoprotein); expressed in transfected cells; host or cells: Ba/F3 (lentiviral transduction, monoclonal line)
How it was run: as §1

K562 cells = test: Cell growth inhibitory activity assay (CellTiter-Glo), K562 cells; conditions: Homo sapiens, 72 h, CTG cell viability
How it was run: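 K562 cells in logarithmic growth were counted, diluted and plated in 96-well plates, with medium-only blanks and a separate T0 plate read by CTG the following day. After overnight incubation, graded compound concentrations were added for 72 h, with 0.5% DMSO wells as growth controls. Luminescence was read on a Biotek cytation3.0, and IC50 came from nonlinear fitting in GraphPad Prism 7.0.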

Ba/F3 BCR-ABL1 T315I = biological target: T2, Ba/F3 BCR-ABL1 T315I (Homo sapiens, UniProt P00519+P11274, T315I); test: Cell growth inhibitory activity assay (CellTiter-Glo), Ba/F3 BCR-ABL1 T315I cells; conditions: 72 h, CTG cell viability
T2 construct: BCR (N-terminal fusion partner of the oncoprotein); expressed in transfected cells; host or cells: Ba/F3 (lentiviral transduction, monoclonal line)
How it was run: as §1

Ba/F3 BCR-ABL1 T315M = biological target: T3, Ba/F3 BCR-ABL1 T315M (Homo sapiens, UniProt P00519+P11274, T315M); test: Cell growth inhibitory activity assay (CellTiter-Glo), Ba/F3 BCR-ABL1 T315M cells; conditions: 72 h, CTG cell viability
T3 construct: BCR (N-terminal fusion partner of the oncoprotein); expressed in transfected cells; host or cells: Ba/F3 (lentiviral transduction, monoclonal line)
Method: In this assay, the Celltiter-Glo (CTG) kit provided by Promega was used, and it is a homogeneous cell viability assay method. The cell viability of cultured cells was measured by quantifying ATP. K562 cells were purchased from Nanjing Kebai, product number CBP60529; Ba/F3 parental cells were purchased from RIKEN BRC, product number RCB0805; other cells containing BCR-ABL1 WT, BCR-ABL1 T315I, BCR-ABL1 T315M, BCR-ABL1 Y253H/E255K, BCR-ABL1 E255V/T3151, BCR-ABL1 A424T, BCR-ABL1 A337V, BCR-ABL1 P465S, BCR-ABL1 V468F, and BCR-ABL1 I502L were all monoclonal engineered cell lines obtained by transducting Ba/F3 parental cells with the lentivirus plasmids containing WT or corresponding mutated BCR-ABL1.
The steps of cell viability assay are as follows: • a) Cells in logarithmic growth phase were collected. Cell suspension was prepared and the cells were counted. Concentration of the cells was calculated. • b) The cell suspension was diluted to the required concentration and then added to the middle wells of a 96-well plate, and PBS was added to the edge wells. The wells with no cells and only culture medium were used as blank controls. • c) In addition to the cell plate used for compound analysis, another 96-well plate was prepared as a T0 plate, and 3-6 blank wells and 3-6 cell wells were added. The next day, CTG was used to test the cell viability as the T0 viability value of the cells. • d) The cell plate was incubated at 37 °C in a 5% CO2 incubator overnight. • e) The next day, each concentration of a compound subjected to a gradient dilution was added, and the cell plate was incubated at 37 °C in a 5% CO2 incubator for 72 h. The wells with no compound and only 0.5% DMSO were used as positive controls for cell growth. • f) CTG reagent (CellTiter-Glo kit) was added according to the manufacturer's instructions to test the cell viability value. • g) The plate was read using Biotek cytation3.0 microplate reader and the data were exported. • h) IC50 was calculated using GraphPad Prism 7.0 software.
The IC50 (half-maximal inhibitory concentration) of the compound was obtained using the following nonlinear fitting formula: Y = Bottom + (Top−Bottom)/(1+10^(∧)((LogIC50−X)*HillSlope)) [formula] • X: Log value of the compound concentration • Y: Inhibition rate (% inhibition) • Top: Maximum response • Bottom: Baseline response • HillSlope: Slope of the curve
The formula for calculating cell inhibition rate (inhibition rate %) was: [formula]

Structure (SMILES) | IC50 (Ba/F3 parental cells) [nM] | IC50 (Ba/F3 BCR-ABL1 WT) [nM] | IC50 (K562 cells) [nM] | IC50 (Ba/F3 BCR-ABL1 T315I) [nM] | IC50 (Ba/F3 BCR-ABL1 T315M) [nM]
CC(=O)N[C@@H]1CCC2c3cc(C(=O)Nc4ccc(OC(F)(F)Cl)cc4)cc(-c4cnc5c(c4)C(=O)N(C)C5)c3N(C(C)C)C21 (stereo partly drawn) [T-11-B, (3R)-3-acetamido-N-(4-(chlorodifluoromethoxy)phenyl)-4-isopropyl-5-(6-methyl-5-oxo-6,7-dihydro-5H-pyrrolo[3,4-b]pyridin-3-yl)-1,2,3,3a,4,8b-hexahydrocyclopenta[b]indole-7-carboxamide] | > 1000 | ≤ 5 | ≤ 5 | 5 to 50 | 50 to 1000
CC(=O)N[C@H]1CCC2c3cc(C(=O)Nc4ccc(OC(F)(F)Cl)cc4)cc(-c4cnccn4)c3N(C(C)C)C21 (stereo partly drawn) [T-12-A, (3S)-3-acetamido-N-(4-(chlorodifluoromethoxy)phenyl)-4-isopropyl-5-(pyrazin-2-yl)-1,2,3,3a,4,8b-hexahydrocyclopenta[b]indole-7-carboxamide] | > 1000 | 50 to 1000 | 50 to 1000 | > 1000 | > 1000
CC(=O)N[C@@H]1CCC2c3cc(C(=O)Nc4ccc(OC(F)(F)Cl)cc4)cc(-c4cnccn4)c3N(C(C)C)C21 (stereo partly drawn) [T-12-B, (3R)-3-acetamido-N-(4-(chlorodifluoromethoxy)phenyl)-4-isopropyl-5-(pyrazin-2-yl)-1,2,3,3a,4,8b-hexahvdrocyclopentalblindole-7-carboxamide] | > 1000 | ≤ 5 | ≤ 5 | 5 to 50 | 50 to 1000
C[C@@H]1CC[S+]([O-])c2nc3cc(C(=O)Nc4ccc(OC(F)(F)Cl)cc4)cc(-c4cnc5c(c4)C(=O)N(C)C5)c3n21 (stereo partly drawn) [T-27, (4R)-N-(4-(chlorodifluoromethoxy)phenyl)-4-methyl-6-(6-methyl-5-oxo-6,7-dihydro-5H-pyrrolo[3,4-b]pyridin-3-yl)-3,4-dihydro-2H-benzo[4,5]imidazo[2,1-b][1,3]thiazine-8-carboxamide 1-oxide] | > 1000 | 5 to 50 | ≤ 5 | 50 to 1000 | > 1000
C[C@@H]1CCS(=O)(=O)c2nc3cc(C(=O)Nc4ccc(OC(F)(F)Cl)cc4)cc(-c4cnc5c(c4)C(=O)N(C)C5)c3n21 [T-28, (R)-N-(4-(chlorodifluoromethoxy)phenyl)-4-methyl-6-(6-methyl-5-oxo-6,7-dihydro-5H-pyrrolo[3,4-b]pyridin-3-yl)-3,4-dihydro-2H-benzo[4,5]imidazo[2,1-b][1,3]thiazine-8-carboxamide 1,1-dioxide] | > 1000 | 5 to 50 | ≤ 5 | 5 to 50 | 50 to 1000
C[C@@H]1COCc2nc3cc(C(=O)Nc4ccc(OC(F)(F)Cl)cc4)cc(-c4cnc5c(c4)C(=O)NC5)c3n21 [T-30, (R)-N-(4-(chlorodifluoromethoxy)phenyl)-4-methyl-6-(5-oxo-6,7-dihydro-5H-pyrrolo[3,4-b]pyridin-3-yl)-3,4-dihydro-1H-benzo[4,5]imidazo[2,1-c][1,4]oxazine-8-carboxamide] | > 1000 | ≤ 5 | ≤ 5 | 50 to 1000 | 5 to 50
C[C@@H]1CCC(O)c2nc3cc(C(=O)Nc4ccc(OC(F)(F)Cl)cc4)cc(-c4cnc5c(c4)C(=O)N(C4CC4)C5)c3n21 (stereo partly drawn) [T-32, (1R)-N-(4-(chlorodifluoromethoxy)phenyl)-9-(6-cyclopropyl-5-oxo-6,7-dihydro-5H-pyrrolo[3,4-b]pyridin-3-yl)-4-hydroxy-1-methyl-1,2,3,4-tetrahydrobenzo[4,5]imidazo[1,2-a]pyridine-7-carboxamide] | > 1000 | ≤ 5 | ≤ 5 | 50 to 1000 | 50 to 1000
C[C@@H]1CCC(O)c2nc3cc(C(=O)Nc4ccc(OC(F)(F)Cl)cc4)cc(-c4cnc5c(c4)C(=O)NC5)c3n21 (stereo partly drawn) [T-33, (1R)-N-(4-(chlorodifluoromethoxy)phenyl)-4-hydroxy-1-methyl-9-(5-oxo-6,7-dihydro-5H-pyrrolo[3,4-b]pyridin-3-yl)-1,2,3,4-tetrahydrobenzo[4,5]imidazo[1,2-a]pyridine-7-carboxamide] | > 1000 | 5 to 50 | ≤ 5 | 50 to 1000 | 50 to 1000
C[C@@H]1CCC(F)c2nc3cc(C(=O)Nc4ccc(OC(F)(F)Cl)cc4)cc(-c4cnc5c(c4)C(=O)N(C4CC4)C5)c3n21 (stereo partly drawn) [T-35] | > 1000 | ≤ 5 | ≤ 5 | 5 to 50 | 5 to 50
C[C@@H]1CN(C)CCc2nc3cc(C(=O)Nc4ccc(OC(F)(F)Cl)cc4)cc(-c4cnc5c(c4)C(=O)N(C4CC4)C5)c3n21 [T-37, (R)-N-(4-(chlorodifluoromethoxy)phenyl)-10-(6-cyclopropyl-5-oxo-6,7-dihydro-5H-pyrrolo[3,4-b]pyridin-3-yl)-1,3-dimethyl-2,3,4,5-tetrahydro-1H-benzo[4,5]imidazo[1,2-d][1,4]diazepine-8-carboxamide] | > 1000 | > 1000 | 50 to 1000 | > 1000 | > 1000
C[C@@H]1CCOCc2nc3cc(C(=O)Nc4ccc(OC(F)(F)Cl)cc4)cc(-c4cnc5c(c4)C(=O)N(C)C5)c3n21 [T-39, (R)-N-(4-(chlorodifluoromethoxy)phenyl)-5-methyl-7-(6-methyl-5-oxo-6,7-dihydro-5H-pyrrolo[3,4-b]pyridin-3-yl)-4,5-dihydro-1H,3H-benzo[4,5]imidazo[2,1-c][1,4]oxazepine-9-carboxamide] | > 1000 | ≤ 5 | ≤ 5 | 50 to 1000 | > 1000
CC(=O)n1cc2c(n1)-c1cc(-c3cc(C(=O)Nc4ccc(OC(F)(F)Cl)cc4)cc4nc5n(c34)[C@H](C)COC5)cnc1C2 [T-43, (R)-6-(2-acetyl-2,4-dihydropyrazolo[3',4':3,4]cyclopenta[1,2-b]pyridin-7-yl)-N-(4-(chlorodifluoromethoxy)phenyl)-4-methyl-3,4-dihydro-1H-benzo[4,5]imidazo[2,1-c][1,4]oxazine-8-carboxamide] | > 1000 | ≤ 5 | ≤ 5 | ≤ 5 | 50 to 1000
Cc1ccnc(-n2cc3c(n2)-c2cc(-c4cc(C(=O)Nc5ccc(OC(F)(F)Cl)cc5)cc5nc6n(c45)[C@H](C)COC6)cnc2C3)n1 [T-73, (R)-N-(4-(chlorodifluoromethoxy)phenyl)-4-methyl-6-(2-(4-methylpyrimidin-2-yl)-2,4-dihydropyrazolo[3',4':3,4]cyclopenta[1,2-b]pyridin-7-yl)-3,4-dihydro-1H-benzo[4,5]imidazo[2,1-c][1,4]oxazine-8-carboxamide] | > 1000 | ≤ 5 | ≤ 5 | ≤ 5 | ≤ 5
C[C@@H]1CC[S+]([O-])c2nc3cc(C(=O)Nc4ccc(OC(F)(F)Cl)cc4)cc(-c4cnccn4)c3n21 (stereo partly drawn) [T-117, (4R)-N-(4-(chlorodifluoromethoxy)phenyl)-4-methyl-6-(pyrazin-2-yl)-3,4-dihydro-2H-benzo[4,5]imidazo[2,1-b][1,3]thiazine-8-carboxamide 1-oxide] | > 1000 | ≤ 5 | ≤ 5 | 5 to 50 | > 1000
C[C@@H]1CCS(=O)(=O)c2nc3cc(C(=O)Nc4ccc(OC(F)(F)Cl)cc4)cc(-c4cnccn4)c3n21 [T-118, (R)-N-(4-(chlorodifluoromethoxy)phenyl)-4-methyl-6-(pyrazin-2-yl)-3,4-dihydro-2H-benzo[4,5]imidazo[2,1-b][1,3]thiazine-8-carboxamide 1,1-dioxide] | > 1000 | ≤ 5 | ≤ 5 | 5 to 50 | 50 to 1000

— patent EP4768484A1, “HETEROCYCLIC FUSED RING COMPOUND, AND COMPOSITION AND USE THEREOF” (Shenzhen TargetRx, Inc., priority 2023, dated 2025)
